Experimental data reported in USRE47193E1, “Selectively substituted quinoline compounds” (EISAI R&D MANAGEMENT CO., LTD., priority 2013, dated 2019).

How the values were obtained:
Human TLR4 = molecular target: T1, Human TLR4 (Homo sapiens, UniProt O00206); assay: HEK-293 human TLR4 NF-kappaB luciferase reporter assay (LPS); type: cell-based; details: ligand LPS, analyte NFkB-luciferase
T1 construct: stably and individually express human TLR4, TLR7 or TLR9 full-length ORF cDNAs; expressed in transfected cells; host or cells: HEK-293 (ATCC) with ELAM-1 NF-kappaB luciferase reporter
T1 sequence (O00206 24-839): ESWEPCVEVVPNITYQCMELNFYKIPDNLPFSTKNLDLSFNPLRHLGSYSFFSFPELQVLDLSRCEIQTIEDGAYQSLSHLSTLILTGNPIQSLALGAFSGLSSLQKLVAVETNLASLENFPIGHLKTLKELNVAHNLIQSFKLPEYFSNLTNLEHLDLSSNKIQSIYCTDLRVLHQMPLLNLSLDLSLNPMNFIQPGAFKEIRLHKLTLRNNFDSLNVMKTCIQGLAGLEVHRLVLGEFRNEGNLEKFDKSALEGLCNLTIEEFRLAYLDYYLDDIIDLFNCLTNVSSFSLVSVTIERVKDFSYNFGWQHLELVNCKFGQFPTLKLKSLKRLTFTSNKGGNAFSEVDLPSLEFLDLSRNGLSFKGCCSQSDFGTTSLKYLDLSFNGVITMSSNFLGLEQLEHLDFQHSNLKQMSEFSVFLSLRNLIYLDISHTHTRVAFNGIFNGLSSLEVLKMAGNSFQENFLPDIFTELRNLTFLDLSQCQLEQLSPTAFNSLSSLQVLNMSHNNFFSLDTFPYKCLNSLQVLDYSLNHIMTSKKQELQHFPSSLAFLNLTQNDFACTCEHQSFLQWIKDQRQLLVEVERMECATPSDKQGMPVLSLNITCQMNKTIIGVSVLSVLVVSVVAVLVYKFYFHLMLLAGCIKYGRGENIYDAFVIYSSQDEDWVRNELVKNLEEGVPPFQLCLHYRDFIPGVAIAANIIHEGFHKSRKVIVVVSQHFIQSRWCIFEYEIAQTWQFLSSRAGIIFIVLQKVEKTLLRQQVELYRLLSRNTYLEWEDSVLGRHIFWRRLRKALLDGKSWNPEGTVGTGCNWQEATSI
T1 sequence (Q9Y6Y9 19-160 partner): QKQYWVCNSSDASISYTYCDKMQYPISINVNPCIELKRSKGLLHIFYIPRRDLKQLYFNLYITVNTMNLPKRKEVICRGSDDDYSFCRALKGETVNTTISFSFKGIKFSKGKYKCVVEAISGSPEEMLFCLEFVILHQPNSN
Description: (§1) To identify potent and selective TLR7/8 compounds, analogs were initially screened across a cell-based panel of human TLR4, TLR7, and TLR9 reporter lines (see Pharmacology Materials and Methods for more details). […] Certain compounds were advanced into the short-term in vivo (STIV) assay to determine dose-dependent activity and duration-of-action against mouse TLR7 (see Pharmacology Materials and Methods for more details). Select compounds were then evaluated for impact in one or more of the following mouse lupus disease models: BXSB-Yaa, NZBx-NZW, and Pristane DBA/1.
(§2) HEK-293 cells (ATCC) were engineered to stably express a NF-kappaB transcription factor inducible E-selectin (ELAM-1) luciferase reporter derived from the plasmid pGL3 (Promega) containing base pairs −2241 bp to −254 bp from the promoter of the human E-selectin gene (Accession No. NM_000450). These cells were then subsequently engineered to stably and individually express human TLR4, TLR7 or TLR9 full-length ORF cDNAs. Human TLR4 cDNA (Accession No. NM_138554) was cloned into pcDNA 3.0 expression vector (Invitrogen). TLR4 transfected cells were also engineered to express human MD-2 co-receptor [MD-2 cDNA (Accession No. NM_015364) was cloned into the pEF-BOS vector] and were supplemented with 10 nM soluble CD14 (R&D Systems) in the media to optimize LPS responsiveness. […]

TLR9 = molecular target: T2, TLR9 (Homo sapiens, UniProt Q9NR96); assay: HEK-293 human TLR9 NF-kappaB luciferase reporter assay (CpG-ODN); type: cell-based; set-up: stably and individually express human TLR4, TLR7 or TLR9 full-length ORF cDNAs; expressed in transfected cells; host or cells: HEK-293 (ATCC) with ELAM-1 NF-kappaB luciferase reporter; details: ligand CpG-ODN, analyte NFkB-luciferase
T2 sequence (Q9NR96 26-1032): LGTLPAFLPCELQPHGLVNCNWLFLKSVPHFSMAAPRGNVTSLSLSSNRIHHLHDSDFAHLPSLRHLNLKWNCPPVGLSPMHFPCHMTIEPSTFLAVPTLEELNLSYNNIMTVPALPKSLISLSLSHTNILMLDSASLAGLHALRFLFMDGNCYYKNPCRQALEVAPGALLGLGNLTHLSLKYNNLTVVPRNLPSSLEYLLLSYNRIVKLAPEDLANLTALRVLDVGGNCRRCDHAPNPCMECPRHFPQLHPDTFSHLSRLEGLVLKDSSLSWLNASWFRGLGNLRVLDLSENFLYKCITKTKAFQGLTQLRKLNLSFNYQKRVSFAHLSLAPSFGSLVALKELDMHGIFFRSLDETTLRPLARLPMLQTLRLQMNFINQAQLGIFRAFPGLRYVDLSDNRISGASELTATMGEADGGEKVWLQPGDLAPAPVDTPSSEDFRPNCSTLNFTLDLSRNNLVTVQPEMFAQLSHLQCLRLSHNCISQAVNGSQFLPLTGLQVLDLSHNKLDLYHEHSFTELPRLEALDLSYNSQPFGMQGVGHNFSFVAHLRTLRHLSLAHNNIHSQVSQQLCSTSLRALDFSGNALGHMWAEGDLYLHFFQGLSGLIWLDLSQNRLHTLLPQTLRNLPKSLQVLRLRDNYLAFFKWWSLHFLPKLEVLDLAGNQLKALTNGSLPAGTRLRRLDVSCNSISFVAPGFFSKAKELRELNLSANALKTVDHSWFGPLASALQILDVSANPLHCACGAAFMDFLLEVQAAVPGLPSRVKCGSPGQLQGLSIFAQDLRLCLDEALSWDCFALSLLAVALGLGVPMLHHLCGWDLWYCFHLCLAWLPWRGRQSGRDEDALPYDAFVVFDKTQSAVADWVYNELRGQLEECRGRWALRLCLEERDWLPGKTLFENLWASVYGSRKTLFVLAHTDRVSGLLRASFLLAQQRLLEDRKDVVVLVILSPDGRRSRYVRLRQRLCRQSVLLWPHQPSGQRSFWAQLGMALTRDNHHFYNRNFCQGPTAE
Description: as §1, §2

`C[C@@H]1CN(c2ccc(C#N)c3ncccc23)C[C@H](C(=O)N[C@H]2CNC[C@H]2F)O1.Cl` [ER-899742, (2R,6R)-4-(8-cyanoquinolin-5-yl)-N-[(3S,4R)-4-fluoropyrrolidin-3-yl]-6-methylmorpholine-2-carboxamide hydrochloride] gave an IC50 (Human TLR4) of over 10 µM and an IC50 (TLR9) of over 10 µM.
